Assays:
Format in all cases: in vivo
[1] = system: Italian ryegrass (Lolium multiflorum); assay: Test A preemergence, visual plant response rating; conditions: for Ryegrass, Italian plant response rating: 125 g ai/ha, preemergence, 0 to 100 scale, 0 no effect, 100 complete control; for Ryegrass, Italian plant response rating (0 to 100 scale): approx. 10 days
How it was run: (§1)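 Greenhouse pot test in loam–sand soil mix: compound in a surfactant-containing non-phytotoxic solvent applied preemergence (directed soil spray) or postemergence (one- to two-leaf plants, 2–10 cm). Injury scored visually after ~10 days, 0–100.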

[2] = system: barnyardgrass (Echinochloa crus-galli); assay: Test A preemergence, visual plant response rating; conditions: for Barnyardgrass plant response rating: 125 g ai/ha, preemergence, 0 to 100 scale, 0 no effect, 100 complete control; for Barnyardgrass plant response rating (0 to 100 scale): approx. 10 days
How it was run: as §1

[3] = system: foxtail, giant (giant foxtail, Setaria faberii); assay: Test A preemergence, visual plant response rating; conditions: for Foxtail, Giant plant response rating: 125 g ai/ha, preemergence, 0 to 100 scale, 0 no effect, 100 complete control; for Foxtail, Giant plant response rating (0 to 100 scale): approx. 10 days
How it was run: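 Preemergence: seeds in loam/sand blend given directed soil spray of compound in non-phytotoxic solvent with surfactant. Postemergence: plants 2–10 cm, one- to two-leaf stage, sprayed with same formulation. Visual injury rated vs untreated controls after ~10 days in greenhouse, 0 (no effect) to 100 (complete control).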

kochia (Kochia scoparia) [4] = assay: Test A preemergence, visual plant response rating; conditions: for Kochia plant response rating: 125 g ai/ha, preemergence, 0 to 100 scale, 0 no effect, 100 complete control; for Kochia plant response rating (0 to 100 scale): approx. 10 days
How it was run: as §1

[5] = system: pigweed (Amaranthus retroflexus); assay: Test A preemergence, visual plant response rating; conditions: for Pigweed plant response rating: 125 g ai/ha, preemergence, 0 to 100 scale, 0 no effect, 100 complete control; for Pigweed plant response rating (0 to 100 scale): approx. 10 days
How it was run: as §1

[6] = system: ragweed (common ragweed, Ambrosia elatior); assay: Test A preemergence, visual plant response rating; conditions: for Ragweed plant response rating: 125 g ai/ha, preemergence, 0 to 100 scale, 0 no effect, 100 complete control; for Ragweed plant response rating (0 to 100 scale): approx. 10 days
How it was run: as §1

[7] = system: Italian ryegrass (Lolium multiflorum); assay: Test A postemergence, visual plant response rating; conditions: for Ryegrass, Italian plant response rating (0 to 100 scale): 500 g ai/ha, postemergence, 0 is no effect, 100 is complete control; for Ryegrass, Italian plant response rating: Postemergence, 125 g ai/ha, 0 to 100 scale (0 no effect, 100 complete control)
How it was run: as §1

[8] = system: barnyardgrass (Echinochloa crus-galli); assay: Test A postemergence, visual plant response rating; conditions: for Barnyardgrass plant response rating (0 to 100 scale): 500 g ai/ha, postemergence, 0 is no effect, 100 is complete control; for Barnyardgrass plant response rating: Postemergence, 125 g ai/ha, 0 to 100 scale (0 no effect, 100 complete control)
How it was run: as §1

[9] = system: blackgrass (Alopecurus myosuroides); assay: Test A postemergence, visual plant response rating; conditions: for Blackgrass plant response rating (0 to 100 scale): 500 g ai/ha, postemergence, 0 is no effect, 100 is complete control; for Blackgrass plant response rating: Postemergence, 125 g ai/ha, 0 to 100 scale (0 no effect, 100 complete control)
How it was run: as §1

corn (Zea mays) = assay: Test A postemergence, visual plant response rating; conditions: for Corn plant response rating (0 to 100 scale): 500 g ai/ha, postemergence, 0 is no effect, 100 is complete control; for Corn plant response rating: Postemergence, 125 g ai/ha, 0 to 100 scale (0 no effect, 100 complete control)
How it was run: as §1

[10] = system: foxtail, giant (giant foxtail, Setaria faberii); assay: Test A postemergence, visual plant response rating; conditions: for Foxtail, Giant plant response rating (0 to 100 scale): 500 g ai/ha, postemergence, 0 is no effect, 100 is complete control; for Foxtail, Giant plant response rating: Postemergence, 125 g ai/ha, 0 to 100 scale (0 no effect, 100 complete control)
How it was run: as §1

[11] = system: galium (catchweed bedstraw, Galium aparine); assay: Test A postemergence, visual plant response rating; conditions: for Galium plant response rating (0 to 100 scale): 500 g ai/ha, postemergence, 0 is no effect, 100 is complete control; for Galium plant response rating: Postemergence, 125 g ai/ha, 0 to 100 scale (0 no effect, 100 complete control)
How it was run: as §1

kochia (Kochia scoparia) [12] = assay: Test A postemergence, visual plant response rating; conditions: for Kochia plant response rating (0 to 100 scale): 500 g ai/ha, postemergence, 0 is no effect, 100 is complete control; for Kochia plant response rating: Postemergence, 125 g ai/ha, 0 to 100 scale (0 no effect, 100 complete control)
How it was run: as §1

[13] = system: pigweed (Amaranthus retroflexus); assay: Test A postemergence, visual plant response rating; conditions: for Pigweed plant response rating (0 to 100 scale): 500 g ai/ha, postemergence, 0 is no effect, 100 is complete control; for Pigweed plant response rating: Postemergence, 125 g ai/ha, 0 to 100 scale (0 no effect, 100 complete control)
How it was run: as §1

[14] = system: ragweed (common ragweed, Ambrosia elatior); assay: Test A postemergence, visual plant response rating; conditions: for Ragweed plant response rating (0 to 100 scale): 500 g ai/ha, postemergence, 0 is no effect, 100 is complete control; for Ragweed plant response rating: Postemergence, 125 g ai/ha, 0 to 100 scale (0 no effect, 100 complete control)
How it was run: as §1

[15] = system: wheat (Triticum aestivum); assay: Test A postemergence, visual plant response rating; conditions: for Wheat plant response rating (0 to 100 scale): 500 g ai/ha, postemergence, 0 is no effect, 100 is complete control; for Wheat plant response rating: Postemergence, 125 g ai/ha, 0 to 100 scale (0 no effect, 100 complete control)
How it was run: as §1

[16] = system: barnyardgrass (Echinochloa crus-galli); assay: Test B flooded paddy test, visual plant response rating; conditions: 250 g ai/ha, Flood, applied to paddy water, 2-leaf stage, evaluated after 13 to 15 days
How it was run: (§2)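 Plants were raised to the 2-leaf stage, then pots were flooded to 3 cm above the soil and test compound was applied directly into the paddy water. Water depth was held for the whole test; after 13 to 15 days in a greenhouse, responses were scored visually against controls.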

[17] = system: ducksalad (Heteranhera limosa); assay: as above; conditions: 250 g ai/ha, Flood, applied to paddy water, 2-leaf stage, evaluated after 13 to 15 days
How it was run: as §2

rice (Oryza sativa) = assay: as above; conditions: 250 g ai/ha, Flood, applied to paddy water, 2-leaf stage, evaluated after 13 to 15 days
How it was run: as §2

[18] = system: sedge, umbrella (small-flower umbrella sedge, Cyperus difformis); assay: as above; conditions: 250 g ai/ha, Flood, applied to paddy water, 2-leaf stage, evaluated after 13 to 15 days
How it was run: as §2

SMILES | Ryegrass, Italian plant response rating (0 to 100 scale) ([1]; 500 g ai/ha Preemergence) | Barnyardgrass plant response rating (0 to 100 scale) ([2]; 500 g ai/ha Preemergence) | Foxtail, Giant plant response rating (0 to 100 scale) ([3]; 500 g ai/ha Preemergence) | Kochia plant response rating (0 to 100 scale) (kochia (Kochia scoparia) [4]; 500 g ai/ha Preemergence) | Pigweed plant response rating (0 to 100 scale) ([5]; 500 g ai/ha Preemergence) | Ragweed plant response rating (0 to 100 scale) ([6]; 500 g ai/ha Preemergence) | Ryegrass, Italian plant response rating (0 to 100 scale) [7] | Ryegrass, Italian plant response rating [7] | Barnyardgrass plant response rating (0 to 100 scale) [8] | Barnyardgrass plant response rating [8] | Blackgrass plant response rating (0 to 100 scale) [9] | Blackgrass plant response rating [9] | Corn plant response rating (0 to 100 scale) (corn (Zea mays)) | Corn plant response rating (corn (Zea mays)) | Foxtail, Giant plant response rating (0 to 100 scale) [10] | Foxtail, Giant plant response rating [10] | Galium plant response rating (0 to 100 scale) [11] | Galium plant response rating [11] | Kochia plant response rating (0 to 100 scale) (kochia (Kochia scoparia) [12]) | Kochia plant response rating (kochia (Kochia scoparia) [12]) | further results
CON=C(c1c(O)c(C)nn(C)c1=O)c1cccc2ccoc12 [Compound 60] | 40 | 0 | 10 | 0 | 30 | 30 | 20 | 10 | 0 | 0 | 10 | 0 | 0 | 0 | 30 | 0 | 70 | 60 | 50 | 30 | Ryegrass, Italian plant response rating [1]: 0; Barnyardgrass plant response rating [2]: 0; Foxtail, Giant plant response rating [3]: 10; Kochia plant response rating (kochia (Kochia scoparia) [4]): 0; Pigweed plant response rating [5]: 0; Ragweed plant response rating [6]: 0; Pigweed plant response rating (0 to 100 scale) [13]: 90; Pigweed plant response rating [13]: 50; Ragweed plant response rating (0 to 100 scale) [14]: 40; Ragweed plant response rating [14]: 20; Wheat plant response rating (0 to 100 scale) [15]: 40; Plant response rating, Barnyardgrass (0 to 100 scale, 0 is no effect, 100 is complete control) [16]: 0; Plant response rating, Ducksalad (0 to 100 scale, 0 is no effect, 100 is complete control) [17]: 0; Plant response rating, Rice (0 to 100 scale, 0 is no effect, 100 is complete control) (rice (Oryza sativa)): 0; Plant response rating, Sedge, Umbrella (0 to 100 scale, 0 is no effect, 100 is complete control) [18]: 0
CO/N=C(\c1cc(C)ccc1Cl)c1c(O)c(C)nn(C)c1=O [Compound 38] | 0 | 0 | 10 | 20 | 0 | 30 | 20 | 10 | 20 | 20 | 30 | 10 | 20 | 10 | 30 | 10 | 90 | 80 | 50 | 10 | Ryegrass, Italian plant response rating [1]: 0; Barnyardgrass plant response rating [2]: 0; Foxtail, Giant plant response rating [3]: 0; Kochia plant response rating (kochia (Kochia scoparia) [4]): 0; Pigweed plant response rating [5]: 0; Ragweed plant response rating [6]: 30; Pigweed plant response rating (0 to 100 scale) [13]: 60; Pigweed plant response rating [13]: 20; Ragweed plant response rating (0 to 100 scale) [14]: 70; Ragweed plant response rating [14]: 60; Wheat plant response rating (0 to 100 scale) [15]: 0; Wheat plant response rating [15]: 0; Plant response rating, Barnyardgrass (0 to 100 scale, 0 is no effect, 100 is complete control) [16]: 0; Plant response rating, Ducksalad (0 to 100 scale, 0 is no effect, 100 is complete control) [17]: 0; Plant response rating, Rice (0 to 100 scale, 0 is no effect, 100 is complete control) (rice (Oryza sativa)): 0; Plant response rating, Sedge, Umbrella (0 to 100 scale, 0 is no effect, 100 is complete control) [18]: 0
CO/N=C(/c1cccc(F)c1)c1c(O)c(C)nn(C)c1=O [Compound 32] | 50 | 0 | 0 | 10 | 50 | 40 | 60 | 40 | 20 | 10 | 20 | 0 | 0 | 0 | 20 | 10 | 80 | 70 | 70 | 20 | Ryegrass, Italian plant response rating (0 to 100 scale) ([1]; 125 g ai/ha Preemergence): 20; Barnyardgrass plant response rating (0 to 100 scale) ([2]; 125 g ai/ha Preemergence): 0; Foxtail, Giant plant response rating (0 to 100 scale) ([3]; 125 g ai/ha Preemergence): 0; Kochia plant response rating (0 to 100 scale) (kochia (Kochia scoparia) [4]; 125 g ai/ha Preemergence): 0; Pigweed plant response rating (0 to 100 scale) ([5]; 125 g ai/ha Preemergence): 0; Ragweed plant response rating (0 to 100 scale) ([6]; 125 g ai/ha Preemergence): 20; Pigweed plant response rating (0 to 100 scale) [13]: 40; Pigweed plant response rating [13]: 40; Ragweed plant response rating (0 to 100 scale) [14]: 80; Ragweed plant response rating [14]: 50; Wheat plant response rating (0 to 100 scale) [15]: 10; Wheat plant response rating [15]: 0; Plant response rating, Barnyardgrass (0 to 100 scale, 0 is no effect, 100 is complete control) [16]: 0; Plant response rating, Ducksalad (0 to 100 scale, 0 is no effect, 100 is complete control) [17]: 0; Plant response rating, Rice (0 to 100 scale, 0 is no effect, 100 is complete control) (rice (Oryza sativa)): 0; Plant response rating, Sedge, Umbrella (0 to 100 scale, 0 is no effect, 100 is complete control) [18]: 0

— patent publication US20210045385A1, “PYRIDAZINONE-SUBSTITUTED KETOXIMES AS HERBICIDES” (FMC Corporation, priority 2018, published 2021)
